Laboratory results reported in patent publication US8975417B2, “Pyrazolopyrrolidine derivatives and their use in the treatment of disease” (Novartis AG, priority 2013, dated 2015).
pIC50: −log10 of the molar value. Read-outs that look alike come from different tables or passages of the source.

What was measured:
His-Brd4(44-477) = His-Brd4(44-477) (Homo sapiens (Human), UniProt O60885); assay: TR-FRET in-vitro binding assay for BRD4; conditions: biochemical
Protocol: (§1) TR-FRET In-Vitro Binding Assays for BRD2, BRD3, and BRD4:
(§2) All assays were performed in 384-well microtiter plates. Each assay plate contained 8-point serial dilutions for 40 test compounds, plus 16 high- and 16 low controls. Liquid handling and incubation steps were done on an Innovadyne Nanodrop Express equipped with a robotic arm (Thermo CatX, Perkin Elmer/Caliper Twister II) and an incubator (Liconic STX40, Thermo Cytomat 2C450). The assay plates were prepared by addition of 50 nl per well of compound solution in 90% DMSO HummingBird nanodispenser (Zinsser Analytic). The assay was started by stepwise addition of 4.5 μL per well of bromo domain protein (50 mM HEPES, pH 7.5, 0.005% Tween20, 0.1% BSA, 50 mM NaCl, 45 nM His-Brd2(60-472) or 45 nM His-Brd3(20-477) or 45 nM His-Brd4(44-477) all proteins produced in-house) and 4.5 μL per well of peptide solution (50 mM HEPES, pH 7.5, 0.005% Tween20, 0.1% BSA, 50 mM NaCl, 60 nM acetyl-histone H4 (AcK 5, 8, 12, 16) (Biosyntan GmbH)). Reactions were incubated at 30° C. for 35 minutes. Subsequently 4.5 μL per well detection mix (50 mM HEPES, pH 7.5, 0.005% Tween20, 0.1% BSA, 50 mM NaCl, 3 nM Eu-labeled anti-His6 antibody, 21 nM streptavidin-allophycocyanin) were added. After minutes incubation at 30° C., plates were measured in a Perkin Elmer EnVision multilabel reader.
(§3) Test compounds were dissolved in DMSO (10 mM) and transferred into 1.4 mL flat bottom or V-shaped Matrix tubes carrying a unique 2D matrix. The stock solutions were stored at […] if not used immediately. For the test procedure the vials were defrosted and identified by a scanner whereby a working sheet was generated that guided the subsequent working steps. Compound dilutions were made in 96 well plates. This format enabled the assay of maximally […] at 8 concentrations (single points) including 4 reference compounds, if desired (known BET inhibitors from the prior art, for this and other assays of the type disclosed herein). The dilution protocol included the production of “pre-dilution plates”, “master plates” and “assay plates”.
(§4) Polypropylene 96-well plates were used as pre-dilution plates. […] All dilution steps were done on a HamiltonSTAR robot.
(§5) 30 μL of individual compound dilutions including standard compound and controls of the 4 “pre-dilution plates” were transferred into a 384-well “master plate” including the following concentrations 10000, […], 1000, 300, 100, 30, 10 and 3 μM, respectively in 90% of DMSO.
(§6) Identical “assay plates” were then prepared by pipetting 50 nL each of compound dilutions of the “master plates” into 384-well “assay plates” by means of a HummingBird 384-channel dispenser. These plates were used directly for the assay which was performed in a total volume of 13.55 μL.

[1] = target: His-CREBBP (1081-1197) bromodomain (Homo sapiens (Human), UniProt Q92793); assay: AlphaScreen in-vitro binding assay for CREBBP; conditions: biochemical
Protocol: AlphaScreen In-Vitro Binding Assay for CREBBP
In order to assess bromodomain selectivity, we set up a binding assay using the bromodomain encoded by the CREBBP gene. […] Reactions were incubated at 30° C. for 35 minutes. Subsequently 4.5 μL per well detection mix (50 mM HEPES, pH 7.5, 0.005% Tween20, 0.02% BSA, 150 mM NaCl, 45 μg/ml Ni-chelate acceptor beads, 45 μg/mL streptavidin-donor beads) (Perkin Elmer)) were added. After 60 minutes incubation at room temperature, plates were measured in a Perkin Elmer EnVision multilabel reader. IC50 values were determined from percent inhibition values at different compound concentrations by non-linear regression analysis.
as §3, §4
These plates were used directly for the assay which was performed in a total volume of 13.55 μL.

K-562 cells = assay: Cell growth inhibition assay (CellTiter-Glo), K-562; assay type: cell-based, human
Protocol: (§7) Cell Growth Inhibition Assay
(§8) The human leukemia cell lines MV-4-11, THP-1 and K-562 were employed to characterize the effect of BET inhibitors on cellular proliferation and viability. Cells were obtained from the American Type Culture Collection (ATCC) and cultured at 37° C. in a humidified 5% CO2 incubator in the following media: MV-4-11: DMEM high glucose (Animed #1-26F01-I), 10% FCS (Animed #2-01F26-I), 4 mM L-Glutamine (Animed #5-10K50), 1 mM Sodium Pyruvate (Animed # G03625P), 1× Penicillin-Streptomycin (Animed # F12478P); K-562: Iscove's MEM (Animed #1-28F16-I), 10% FCS (Animed #2-01F26-I), 4 mM L-Glutamine (Animed #5-10K50), 1× Penicillin-Streptomycin (Animed # F12478P); THP-1: RPMI-1640 (Animed #1-41F01-I), 10% FCS (Animed #2-01F26-I), 2 mM L-Glutamine (Animed #5-10K50), 10 mM HEPES (Animed #5-31F100), 1 mM Sodium Pyruvate (Animed # G03625P), 1× Penicillin-Streptomycin (Animed # F12478P). The AML lines MV-4-11 and THP-1 are very sensitive to BET inhibitors and show massive cell death upon BET inhibition (Zuber et al., Nature, 478 (2011), 524-8). Compound-mediated suppression of cell proliferation/viability was assessed by quantification of cellular ATP levels using the CellTiter-Glo (CTG) reagent (Promega). Briefly, cells were seeded in 20 μl fresh medium into 384-well plates, followed by addition of 5 μL medium containing compound dilutions at 5-fold their final intended concentration. Dose-response effects were assessed by 3-fold serial dilutions of the test compound, starting at 10 μM. Following incubation of the cells for days at 37° C. and 5% CO2, the effect of inhibitors on cell viability was quantified following addition of 20 μl CTG and luminescence quantification (integration time: 100 ms) as per vendor manual, using a correspondingly equipped Tecan M200 multi-mode platereader (TECAN, Switzerland). For data analysis, the assay background value determined in wells containing medium, but no cells, was subtracted from all data points. To enable differentiation of cytotoxic from cytostatic compounds, the number of viable cells is assessed relative to that observed at the time of compound addition using a separate cell plate (day 0). The effect of a particular test compound concentration on cell proliferation/viability is expressed as percentage of the background- and day 0-corrected luminescence reading obtained for cells treated with vehicle only (DMSO, 0.1% final concentration), which is set as 100%, whereas that luminescence reading for wells containing medium is set as −100%. Compound concentrations leading to half-maximal (IC50) and total growth inhibition (TGI) were determined using standard four parameter curve fitting.

His-Brd2(60-472) = His-Brd2(60-472) (Homo sapiens (Human), UniProt P25440); assay: TR-FRET in-vitro binding assay for BRD2; conditions: biochemical
Protocol: as §1, §2, §3, §4, §5, §6

His-Brd3(20-477) = His-Brd3(20-477) (Homo sapiens (Human), UniProt Q15059); assay: TR-FRET in-vitro binding assay for BRD3; conditions: biochemical
Protocol: as §1, §2, §3, §4, §5, §6

THP-1 cells = assay: Cell growth inhibition assay (CellTiter-Glo), THP-1; assay type: cell-based; conditions: Homo sapiens, read-out: THP-1 TGI
Protocol: as §7, §8

MV-4-11 cells = assay: Cell growth inhibition assay (CellTiter-Glo), MV-4-11; assay type: cell-based; conditions: Homo sapiens, MV4-11, read-out: MV-4-11 TGI
Protocol: as §7, §8

[2] = Homo sapiens, K562, read-out: K-562 TGI

Sequence of His-Brd2(60-472) (P25440 60-472): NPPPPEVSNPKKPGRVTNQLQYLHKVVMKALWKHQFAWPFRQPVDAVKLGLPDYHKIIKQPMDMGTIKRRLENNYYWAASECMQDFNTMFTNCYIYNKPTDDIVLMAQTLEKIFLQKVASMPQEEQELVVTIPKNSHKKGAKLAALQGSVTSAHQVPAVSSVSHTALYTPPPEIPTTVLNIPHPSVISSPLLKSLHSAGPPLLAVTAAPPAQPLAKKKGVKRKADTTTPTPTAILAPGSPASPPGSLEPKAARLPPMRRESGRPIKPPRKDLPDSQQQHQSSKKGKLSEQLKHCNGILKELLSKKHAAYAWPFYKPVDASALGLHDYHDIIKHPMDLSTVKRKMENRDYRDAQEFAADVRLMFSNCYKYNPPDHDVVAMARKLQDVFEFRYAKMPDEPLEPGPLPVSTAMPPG
Sequence of His-Brd3(20-477) (Q15059 20-477): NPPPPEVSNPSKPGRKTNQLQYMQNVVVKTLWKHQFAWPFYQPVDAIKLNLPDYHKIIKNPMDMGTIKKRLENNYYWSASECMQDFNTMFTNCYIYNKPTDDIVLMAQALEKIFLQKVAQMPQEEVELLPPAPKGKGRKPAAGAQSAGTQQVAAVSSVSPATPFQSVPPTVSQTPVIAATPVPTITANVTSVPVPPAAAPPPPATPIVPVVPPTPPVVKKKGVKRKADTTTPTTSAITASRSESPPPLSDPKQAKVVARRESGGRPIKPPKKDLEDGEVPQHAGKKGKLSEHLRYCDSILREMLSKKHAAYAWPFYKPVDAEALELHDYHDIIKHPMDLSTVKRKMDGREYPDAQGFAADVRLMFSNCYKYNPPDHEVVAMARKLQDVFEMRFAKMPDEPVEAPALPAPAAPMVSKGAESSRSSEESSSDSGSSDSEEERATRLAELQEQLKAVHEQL
Sequence of His-CREBBP (1081-1197) bromodomain (Q92793 1081-1197): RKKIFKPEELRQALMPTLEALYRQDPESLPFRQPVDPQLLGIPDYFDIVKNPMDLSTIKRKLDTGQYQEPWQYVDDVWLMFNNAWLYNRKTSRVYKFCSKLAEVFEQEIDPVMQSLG

SMILES	pIC50 (His-Brd4(44-477))	pIC50 [1]	IC (total growth inhibition) (K-562 cells; read-out: K-562 TGI)	pIC50 (His-Brd2(60-472))	pIC50 (His-Brd3(20-477))	IC (total growth inhibition) (THP-1 cells)	IC (total growth inhibition) (MV-4-11 cells)	IC (total growth inhibition) (K-562 cells; [2])
CNc1cc(N2C(=O)c3c(c(C)nn3C3CC3)C2c2ccc(Cl)cc2)nn2c(C)nnc12 (racemic) [Example 113, 4-(4-chlorophenyl)-1-cyclopropyl-3-methyl-5-(3-methyl-8-(methylamino)-[1,2,4]triazolo[4,3-b]pyridazin-6-yl)-4,5-dihydropyrrolo[3,4-c]pyrazol-6(1H)-one]	7.17	< 4.43	>10 µM	7.07	6.92			
Cc1c2c(nn1C)C(=O)N(c1cc(Cl)c(=O)n(C)c1)[C@@H]2c1ccc(Cl)cc1 [Example 7, (R)-5-(5-chloro-1-methyl-6-oxo-1,6-dihydropyridin-3-yl)-4-(4-chlorophenyl)-2,3-dimethyl-4,5-dihydropyrrolo[3,4-c]pyrazol-6(2H)-one]	7.14			7.00	7.17	0.191 µM	0.107 µM	> 10 µM
Cc1cc(N2C(=O)c3nn(C)cc3[C@H]2c2ccc(Cl)cc2)cn(C)c1=O [Example 16, (R)-4-(4-chlorophenyl)-5-(1,5-dimethyl-6-oxo-1,6-dihydropyridin-3-yl)-2-methyl-4,5-dihydropyrrolo[3,4-c]pyrazol-6(2H)-one]	7.09			7.00	7.18	0.207 µM	0.116 µM	> 10 µM
Cc1c2c(nn1C1CC1)C(=O)N(c1cc(Cl)c(=O)n(C)c1)[C@H]2c1ccc(Cl)cc1 [Example 18, (S)-5-(5-chloro-1-methyl-6-oxo-1,6-dihydropyridin-3-yl)-4-(4-chlorophenyl)-2-cyclopropyl-3-methyl-4,5-dihydropyrrolo[3,4-c]pyrazol-6(2H)-one]	4.64			4.52	4.57	> 10 µM	4.04 µM	> 10 µM
Cc1cc(N2C(=O)c3nn(C4CC4)c(C)c3[C@H]2c2ccc(Cl)cc2)cn(C)c1=O [Example 21]	7.33			7.32	7.37	0.0687 µM	0.0378 µM	> 10 µM
Cc1nn(C2CC2)c2c1[C@H](c1ccc(Cl)cc1)N(c1cc(C)c3nnc(C)n3c1)C2=O [Example 118, (S)-4-(4-chlorophenyl)-1-cyclopropyl-5-(3,8-dimethyl-[1,2,4]triazolo[4,3-a]pyridin-6-yl)-3-methyl-4,5-dihydropyrrolo[3,4-c]pyrazol-6(1H)-one]						> 10 µM	3.35 µM	> 10 µM
Cc1cc(N2C(=O)c3nn(C(C)C)c(C)c3C2c2ccc(Cl)cc2F)cn2c(C)nnc12 (stereo not shown) [Example 169, 4-(4-chloro-2-fluorophenyl)-5-(3,8-dimethyl-[1,2,4]triazolo[4,3-a]pyridin-6-yl)-2-isopropyl-3-methyl-4,5-dihydropyrrolo[3,4-c]pyrazol-6(2H)-one]						0.121 µM	0.0576 µM	> 10 µM
CCn1nc(C)c2c1C(=O)N(c1cc(C)c3nnc(C)n3c1)[C@@H]2c1ccc(F)cc1F [Example 191, (S)-4-(2,4-difluorophenyl)-5-(3,8-dimethyl-[1,2,4]triazolo[4,3-a]pyridin-6-yl)-1-ethyl-3-methyl-4,5-dihydropyrrolo[3,4-c]pyrazol-6(1H)-one]	7.60	5.00		7.16	7.51			
CCn1nc(C)c2c1C(=O)N(c1cc(C)c3nnc(C)n3c1)[C@@H]2c1ccc(Cl)cc1F [Example 192, (S)-4-(4-chloro-2-fluorophenyl)-5-(3,8-dimethyl-[1,2,4]triazolo[4,3-a]pyridin-6-yl)-1-ethyl-3-methyl-4,5-dihydropyrrolo[3,4-c]pyrazol-6(1H)-one]	7.41	5.15		7.28	7.36			
COc1ncccc1-n1nc2c(c1C)C(c1ccc(F)cc1F)N(c1cc(C)c3nnc(C)n3c1)C2=O (stereo not shown) [Example 193, 4-(2,4-difluorophenyl)-5-(3,8-dimethyl-[1,2,4]triazolo[4,3-a]pyridin-6-yl)-2-(2-methoxypyridin-3-yl)-3-methyl-4,5-dihydropyrrolo[3,4-c]pyrazol-6(2H)-one]						0.141 µM	0.0985 µM	> 10 µM
Cc1[nH]nc2c1C(c1ccc(Cl)cc1F)N(c1cc(C)c(=O)n(C)c1)C2=O (stereo not shown) [Example 196, 4-(4-chloro-2-fluorophenyl)-5-(1,5-dimethyl-6-oxo-1,6-dihydropyridin-3-yl)-3-methyl-4,5-dihydropyrrolo[3,4-c]pyrazol-6(2H)-one]						0.53 µM	0.266 µM	> 10 µM
